From paper doi:10.1101/2021.04.29.441652v1 (biorxiv, 2021)

What follows are compounds tested against T1, human σ2 receptor (TMEM97) (Homo sapiens, UniProt Q5BJF2) (assay: [3H]-DTG competition binding, Expi293 membranes). Conditions: not given.
T1 sequence (Q5BJF2 whole entry): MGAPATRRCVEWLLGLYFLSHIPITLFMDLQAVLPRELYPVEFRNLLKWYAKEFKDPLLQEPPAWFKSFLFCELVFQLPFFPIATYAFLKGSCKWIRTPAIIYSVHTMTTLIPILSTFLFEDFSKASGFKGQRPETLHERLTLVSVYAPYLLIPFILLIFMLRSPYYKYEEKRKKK

For `C1=C(c2c[nH]c3ccccc23)CCN(CCCc2ccccc2)C1` [Z295861754], the Ki was 0.057 µM.

Same assay, conditions: 10 nM [3H]-DTG, 50 mM Tris pH 8.0, 37 °C, 90 min

Compared with ZINC450573233, ZINC895657866 is 5-fold higher in Ki: 0.0043 µM for the first, 0.0214 µM for the second.

Biological target: T1, human σ2 receptor (TMEM97)
Assay: [3H]-DTG competition binding, Expi293 membranes
Conditions: not given
Remark: another data set of the same source

`c1ccc(CCCN2CCC(c3nnc4ccccn34)CC2)cc1` [Z163048780] was tested, and the Ki was greater than 10 µM.

Same assay, conditions: 10 nM [3H]-DTG, 50 mM Tris pH 8.0, 37 °C, 90 min

`C1=C(c2c[nH]c3ncccc23)CCN(CCCc2ccccc2)C1` [Z1241145220] and `OC(CCc1ccccc1)CN1CC=C(c2c[nH]c3ncccc23)CC1` (stereo not shown) [Z1665845742] are within 1.5-fold of each other in Ki: 0.0037 µM for the first, 0.005 µM for the second.

These compounds were tested against T1, human σ2 receptor (TMEM97) (assay: biochemical). Conditions: not given.
Format: Expi293 membranes

Compared with `CC1CCN(C2CCC(NC(=O)C(=O)Nc3ccc(C(C)C)cc3)CC2)CC1` (stereo not shown) [ZINC000131303503], `CCOC(=O)[C@@H](CC)N1CCN(C2CCC(C(C)C)CC2)CC1` (stereo partly shown) [ZINC000440321606] is 3.5-fold lower in Ki: 0.0147 µM for the first, 0.00415 µM for the second.

`N/C(=N\Cc1ccc(F)cc1Br)NCC1CCC1` [ZINC000170908795] and `CC[C@@H](CO)N1CCC(CCc2ccc(F)cc2F)CC1` [ZINC001460312963] are within 1.5-fold of each other in Ki: 0.0067 µM for the first, 0.0052 µM for the second.

`O=C(CC1CCCC1)NC1CCN(C[C@H](O)C2CCCCC2)CC1` [ZINC000191344346] and `O[C@@H](CN1CC[C@@H](C2CCCCC2)C1)CC1(O)CCCCC1` [ZINC001460371878] are within 1.5-fold of each other in Ki: 0.0117 µM for the first, 0.00792 µM for the second.

`c1ccc(CSc2cncc(N3CCC[C@H](N4CCCC4)CC3)n2)cc1` [ZINC000301801549] and `Cc1cc(C)c2cc(CN3CCC[C@H](N4CCCC4)CC3)[nH]c2c1` [ZINC000481989921] are within 1.5-fold of each other in Ki: 0.0196 µM for the first, 0.0216 µM for the second.

Compared with `Cc1ccc([C@H]2CCN(CC3(O)CCC3)C2)c(C)c1` [ZINC000348332392], `Cc1ccc(CC2CN(CC3(O)CCSCC3)C2)cc1` [ZINC000656714762] is 2-fold higher in Ki: 0.0337 µM for the first, 0.0678 µM for the second. The first binds more tightly here.

First: CC(C)(C)[C@@H]1CCN(C[C@@H](O)COCc2ccccc2F)C1 [ZINC000409447221]
Second: O[C@@H](COCc1ccccc1Cl)CN1CC[C@H](Cc2ccc(F)cc2)C1 [ZINC000605902355]
The Ki of the first is 1.5-fold lower: 0.00885 µM for the first, 0.0137 µM for the second.

Compared with `C[C@@H](c1ccccc1)[C@@H](O)CN1CCC(c2c[nH]c3ncccc23)CC1` [ZINC000450573233], `C[C@@H](C(=O)N(C)Cc1cccc(F)c1)N1CC=C(c2c[nH]c3ncccc23)CC1` [ZINC000533478938] is 8-fold higher in Ki: 0.0043 µM for the first, 0.0345 µM for the second.

`CN(C[C@]1(O)CCN(Cc2ccccc2)C1)C(=O)c1ccc(F)c2ccccc12` [ZINC000480785335] and `C[C@H](C(=O)NC[C@]1(O)CCN(CCC2CCCC2)C1)c1ccccc1` [ZINC001376084945] are within 1.5-fold of each other in Ki: 0.0129 µM for the first, 0.0135 µM for the second.

`Cc1ccc(CCC2CCN(C(=O)CN3C[C@@H]4CC[C@@H](O)[C@H]4C3)CC2)cc1` [ZINC000544117725] and `Cc1cccc(C)c1OC[C@H](O)CN1CC[C@@H](CC2CC2)C1` [ZINC000559413424] are within 1.5-fold of each other in Ki: 0.01 µM for the first, 0.0105 µM for the second.

First: CC1CCC(O)(CN2CC(Cc3ccc(F)c(F)c3)C2)CC1 (stereo not shown) [ZINC000548355486]
Second: O[C@@H](COCc1ccccc1F)CN1CC(Cc2ccccc2C(F)(F)F)C1 [ZINC001254761628]
The Ki of the first is 2-fold lower: 0.0024 µM for the first, 0.0047 µM for the second.

First: C1CCC([C@@H]2CCN(CCC3CCOCC3)C2)CC1 [ZINC000661577595]
Second: CC1CC(CN2CC(N3CCN(C(=O)[C@H](C)C4CCCC4)CC3)C2)C1 (stereo partly shown) [ZINC000941634458]
The Ki of the first is 12-fold lower: 0.00176 µM for the first, 0.0203 µM for the second.

Compared with `c1ccc(N2CCC(NC[C@@H]3C[C@H]4CCC[C@@H]4O3)CC2)cc1` [ZINC000872109019], `Fc1ccccc1[C@H]1CCN(CC#Cc2cccc(Cl)c2)C1` [ZINC001170548029] is 1.5-fold higher in Ki: 0.0147 µM for the first, 0.0226 µM for the second.

Going from `CC(C)(C)[C@@H]1CCN(C[C@@H](O)CC2(O)CCCCC2)C1` [ZINC000878406056] to `CC(C)CCO[C@@H]1CCN(C[C@H]2CC3(CCCCC3)CO2)C1` [ZINC001196519317], the Ki falls from 0.00766 µM to 0.0024 µM (3.2-fold). The second binds more tightly here.

Compared with `CC(C)(NCc1ccc2c(c1)OCCO2)[C@H](O)c1ccccc1` [ZINC000895657866], `O[C@@]1(CNCc2cccc3c2OCC3)CCc2ccccc21` [ZINC000921927365] is 3.1-fold higher in Ki: 0.0214 µM for the first, 0.0673 µM for the second.

`CCc1nnsc1C(=O)N[C@H]1[C@@H]2CN(CC3CCCCCC3)C[C@@H]21` [ZINC000960887654] and `Fc1c(CN2CCN(C[C@@H]3CCCO3)CC2)ccc(Br)c1Cl` [ZINC001237901728] are within 1.5-fold of each other in Ki: 0.0181 µM for the first, 0.027 µM for the second.

What follows are compounds tested against T1, human σ2 receptor (TMEM97) (assay: biochemical). Conditions: read-out: % of control remaining.
Format: Expi293 membranes

First: CC1CCN(C2CCC(NC(=O)C(=O)Nc3ccc(C(C)C)cc3)CC2)CC1 (stereo not shown) [ZINC000131303503]
Second: CCOC(=O)[C@@H](CC)N1CCN(C2CCC(C(C)C)CC2)CC1 (stereo partly shown) [ZINC000440321606]
The remaining activity at 1 µM of the first is lower: 10.7% for the first, 11.9% for the second.

Going from `N/C(=N\Cc1ccc(F)cc1Br)NCC1CCC1` [ZINC000170908795] to `CC[C@@H](CO)N1CCC(CCc2ccc(F)cc2F)CC1` [ZINC001460312963], the remaining activity at 1 µM rises from 0.9% to 8%.

Going from `O=C(CC1CCCC1)NC1CCN(C[C@H](O)C2CCCCC2)CC1` [ZINC000191344346] to `O[C@@H](CN1CC[C@@H](C2CCCCC2)C1)CC1(O)CCCCC1` [ZINC001460371878], the remaining activity at 1 µM rises from 8.7% to 10.9%.

Going from `c1ccc(CSc2cncc(N3CCC[C@H](N4CCCC4)CC3)n2)cc1` [ZINC000301801549] to `Cc1cc(C)c2cc(CN3CCC[C@H](N4CCCC4)CC3)[nH]c2c1` [ZINC000481989921], the remaining activity at 1 µM rises from 6.9% to 11.7%.

First: Cc1ccc([C@H]2CCN(CC3(O)CCC3)C2)c(C)c1 [ZINC000348332392]
Second: Cc1ccc(CC2CN(CC3(O)CCSCC3)C2)cc1 [ZINC000656714762]
The remaining activity at 1 µM of the first is lower: 5.2% for the first, 9.3% for the second.

Going from `CC(C)(C)[C@@H]1CCN(C[C@@H](O)COCc2ccccc2F)C1` [ZINC000409447221] to `O[C@@H](COCc1ccccc1Cl)CN1CC[C@H](Cc2ccc(F)cc2)C1` [ZINC000605902355], the remaining activity at 1 µM rises from 9.7% to 11.5%.

Going from `C[C@@H](c1ccccc1)[C@@H](O)CN1CCC(c2c[nH]c3ncccc23)CC1` [ZINC000450573233] to `C[C@@H](C(=O)N(C)Cc1cccc(F)c1)N1CC=C(c2c[nH]c3ncccc23)CC1` [ZINC000533478938], the remaining activity at 1 µM falls from 3.6% to 2.7%.

Going from `CN(C[C@]1(O)CCN(Cc2ccccc2)C1)C(=O)c1ccc(F)c2ccccc12` [ZINC000480785335] to `O=C(OC[C@@H]1CCN1Cc1ccccc1)c1nccc2occc12` [ZINC001525937517], the remaining activity at 1 µM rises from 9.8% to 117%.

Going from `Cc1ccc(CCC2CCN(C(=O)CN3C[C@@H]4CC[C@@H](O)[C@H]4C3)CC2)cc1` [ZINC000544117725] to `Cc1cccc2c1CCN2C(=O)[C@@H]1CC[C@H]2CCCC[C@@H]2N1` [ZINC001579778746], the remaining activity at 1 µM rises from 0% to 19.6%.

Going from `CC1CCC(O)(CN2CC(Cc3ccc(F)c(F)c3)C2)CC1` (stereo not shown) [ZINC000548355486] to `Cc1cccc(C)c1OC[C@H](O)CN1CC[C@@H](CC2CC2)C1` [ZINC000559413424], the remaining activity at 1 µM rises from 0.4% to 11.9%.

Going from `C1CCC([C@@H]2CCN(CCC3CCOCC3)C2)CC1` [ZINC000661577595] to `CC1CC(CN2CC(N3CCN(C(=O)[C@H](C)C4CCCC4)CC3)C2)C1` (stereo partly shown) [ZINC000941634458], the remaining activity at 1 µM rises from 6.4% to 12.7%.

Going from `c1ccc(N2CCC(NC[C@@H]3C[C@H]4CCC[C@@H]4O3)CC2)cc1` [ZINC000872109019] to `C[C@H](C(=O)NC[C@]1(O)CCN(CCC2CCCC2)C1)c1ccccc1` [ZINC001376084945], the remaining activity at 1 µM falls from 11.6% to 9.7%.

Going from `CC(C)(C)[C@@H]1CCN(C[C@@H](O)CC2(O)CCCCC2)C1` [ZINC000878406056] to `CC(C)CCO[C@@H]1CCN(C[C@H]2CC3(CCCCC3)CO2)C1` [ZINC001196519317], the remaining activity at 1 µM falls from 11.8% to 1.2%.

Going from `CC(C)(NCc1ccc2c(c1)OCCO2)[C@H](O)c1ccccc1` [ZINC000895657866] to `O[C@@]1(CNCc2cccc3c2OCC3)CCc2ccccc21` [ZINC000921927365], the remaining activity at 1 µM rises from 3% to 12.5%.

Compared with `CCc1nnsc1C(=O)N[C@H]1[C@@H]2CN(CC3CCCCCC3)C[C@@H]21` [ZINC000960887654], `Cc1cnc(CN2CC[C@@H](CCNC(=O)c3cncs3)C2)s1` [ZINC001437918206] is higher in remaining activity at 1 µM: 12.9% for the first, 103% for the second.

First: Fc1ccccc1[C@H]1CCN(CC#Cc2cccc(Cl)c2)C1 [ZINC001170548029]
Second: O[C@@H](COCc1ccccc1F)CN1CC(Cc2ccccc2C(F)(F)F)C1 [ZINC001254761628]
The remaining activity at 1 µM of the first is higher: 8.4% for the first, 1.1% for the second.

Compared with `Fc1c(CN2CCN(C[C@@H]3CCCO3)CC2)ccc(Br)c1Cl` [ZINC001237901728], `Cc1cc(C)c(/C=C\CN2CCC[C@@H](O)C2)cc1C` [ZINC001474404955] is higher in remaining activity at 1 µM: 4.5% for the first, 62.3% for the second.

Going from `CC(C)N1CC[C@H](CCNC(=O)c2cc(-c3cccnc3)on2)C1` [ZINC001418905447] to `Cc1cc(C)nc(C(=O)NCCC2CCN(CCOC(C)C)CC2)c1` [ZINC001419404744], the remaining activity at 1 µM falls from 130% to 19.6%.

First: COCC1(C(=O)N2CCC[C@@H](N(C)CC[C@H](C)F)C2)CC1 [ZINC001420054689]
Second: C[C@@H]1CN(CC(=O)NCCCO[C@@H](C)c2ccccc2)[C@H](C)CCO1 [ZINC001655120594]
The remaining activity at 1 µM of the first is lower: 78.5% for the first, 112% for the second.

Going from `O=C(C[C@]1(O)CCCNC1)Nc1cn2cc(Br)ncc2n1` [ZINC001515357045] to `N[C@H](Cc1ccccn1)C(=O)NCc1ccccc1C(F)(F)F` [ZINC001580410121], the remaining activity at 1 µM rises from 104% to 122%.
